Measurements published in patent publication US11364237B2, “Composition for inhibiting cancer metastasis and treating cancer” (ONCOCROSS CO., LTD., priority 2017, dated 2022).

What was measured:
[1] = test system: colorectal cancer cell lines CT26, HCT116 and SW480; experiment: MTT cell survival rate, colorectal cancer cell lines; format: cell-based, mouse (CT26), human (HCT116; conditions: single treatment, 24, 48 and 72 hours; for concentration at which toxicity was shown (cell survival rate): FIGS. 1 to 3
Procedure: In order to confirm the effect of chlorphenesin (named as OC-201), chloroquine (named as OC-202) and chloropyrazine (named as OC-203) alone on the survival rate of colorectal cancer cells, cell survival rate was evaluated for the colorectal cancer cell lines CT26, HCT116 and SW480 cell lines by MTT assay (Promega, Ltd.) according to the manufacturer's protocol. […] The pre-treated cell lines were incubated with 5 mg/mL MTT for 4 hours. Thereafter, the medium was removed, and 150 μL of the solubilization solution and the stop solution were added, followed by incubation at 30° C. for 4 hours. The absorbance of the reaction solution was measured at 570 nm. The cell survival rate was calculated using the following Equation 1. Cell survival rate=absorbance of experimental group (at 570 nm)/absorbance of control (at 570 nm)×100(%) [Equation 1]
(§1) The pre-treated cell lines were incubated with 5 mg/mL MTT for 4 hours. Thereafter, the medium was removed, and 150 μL of the solubilization solution and the stop solution were added, followed by incubation at 30° C. for 4 hours. The absorbance of the reaction solution was measured at 570 nm. The cell survival rate was calculated using the above Equation 1.

[2] = test system: pancreatic cancer cell lines Aspc-1, MIAPaCA2 and Panc-1; experiment: MTT cell survival rate, pancreatic cancer cell lines; format: cell-based, human; conditions: for cytotoxicity (cell survival rate), single administration: up to 1 mM chlorphenesin, up to 100 μM chloropyrazine, 24, 48, 72 hours, FIGS. 30 and 32
Procedure: as §1, with “mg/ml” for “mg/mL”, “equation 1 as described above.” for “above Equation 1.”
as §1, with “mg/ml” for “mg/mL”, “equation” for “Equation”

SNU 308 cell line = experiment: MTT cell survival rate; format: cell-based, human; conditions: after 48 hours, FIG. 47
Procedure: as §1, with “mg/ml” for “mg/mL”, “equation 1 as described above.” for “the above Equation 1.”

SNU1079 = experiment: MTT cell survival rate; format: cell-based, human; conditions: FIG. 47
Procedure: as §1, with “mg/ml” for “mg/mL”, “equation 1 as described above.” for “the above Equation 1.”

SW480 cell line = experiment: Transwell migration assay, chlorphenesin alone; format: cell-based, human; conditions: 18 hours, laminin in lower well, FIGS. 6 and 7
HCT116 cell line = experiment: Transwell migration assay, chlorphenesin alone; format: cell-based, human; conditions: 18 hours, FIGS. 8 and 9
CT26 cell line = experiment: Transwell migration assay, chlorphenesin alone; format: cell-based, mouse; conditions: 18 hours, FIGS. 10 and 11
[3] = test system: colorectal cancer cell lines HCT116; experiment: Soft agar colony formation assay (anchorage independent growth), chlorphenesin alone; format: cell-based, human; conditions: 3 weeks, FIG. 27
[4] = test system: biliary tract cancer cell lines SNU1079 and SNU308; conditions: human, 48 h
Procedure: as §1, with “mg/ml” for “mg/mL”, “equation 1 as described above.” for “the above Equation 1.”
as §1, with “mg/ml” for “mg/mL”, “equation” for “Equation”

[5] = test system: colorectal cancer cells CT26 and HCT116; experiment: Transwell migration assay at low concentration; format: cell-based, mouse (CT26), human (HCT116); conditions: 1 μM chlorphenesin; 8 hours; FIG. 58
[6] = test system: colorectal cancer cell line CT26; experiment: Wound healing assay at low concentration; format: cell-based, mouse; conditions: 1 μM chlorphenesin; 24 hours; FIG. 59
Procedure: Wound healing analysis was performed to measure cell motility. […] After incubation of the cells for 24 hours in the presence or absence of chlorphenesin (1 μM), a photograph of the dyed monolayers was taken with a microscope.

CT26 cell-induced tumors = experiment: CT26 tumor animal model, tumor growth and lung metastasis; format: in vivo, Balb/c mice
Procedure: Specifically, 60 Balb/c mice were subcutaneously inoculated once with 100 μL of CT26 cell suspension (1×10^7 cells/mL) to induce tumors, thereby producing a xenograft animal model. […] For the chlorphenesin single administration, 10 animal models were abdominally administered with 10 mg/kg chlorphenesin (3 times a week) for 5 weeks or 14 animal models were orally administered with 20 mg/kg chlorphenesin (5 times a week) for 5 weeks. 14 animal models were administered with the same dose of PBS as chlorphenesin as a negative control. […] The body weight of the animal models was measured once a week, and the tumor size was measured once a week from the day of drug administration. After 6 weeks, animal models were anesthetized with ether, and tumors and lungs were collected.

[7] = test system: colorectal cancer cell line HCT116; experiment: Wound healing assay; conditions: 0, 8 and 24 hours, FIGS. 21 to 23
[8] = test system: biliary tract cancer cell line SNU1079; experiment: Transwell migration assay with Combination Index; conditions: 18 hours, FIGS. 51 and 52

| Compound | concentration at which not toxic (cell survival rate) ([1]; FIG. 3) [µM] | cytotoxicity (cell survival rate), single administration [2] | concentration at which toxicity was shown (cell survival rate) [1] | concentration at which cytotoxicity was shown ([2]; single administration, FIG. 31) [µM] | concentration at which cytotoxicity was shown (SNU 308 cell line) [µM] | concentration at which cytotoxicity was shown (SNU1079; after 48 hours) [µM] | concentration at which cytotoxicity was shown (SNU1079; for 24 hours) [µM] | concentration at which cell migration was significantly reduced (SW480 cell line) [µM] | concentration at which cell migration was specially decreased (HCT116 cell line) [µM] | concentration at which cell migration was specially decreased (CT26 cell line) [µM] | concentration at which colony forming ability was decreased [3] [µM] | concentration at which apparent cytotoxicity was shown [4] [µM] | invasion ability and migration ability of the cells compared to the control [5] | mobility of the CT26 cell line (wound healing) [6] | tumor size compared with the control groups (CT26 cell-induced tumors; chlorphenesin 20 mg/kg orally, 5 times a week for 5 weeks, FIG. 61) | cancer metastasis to lungs compared to control groups (CT26 cell-induced tumors; chlorphenesin-treated group, 5 weeks dosing, lungs collected after 6 weeks, FIG. 60) | concentration at which migration was decreased (wound healing) [7] [µM] | concentration at which cell migration was decreased [8] [µM] | concentration at which the decrease of cell migration was remarkable [8] [µM] |
| --- | --- | --- | --- | --- | --- | --- | --- | --- | --- | --- | --- | --- | --- | --- | --- | --- | --- | --- | --- |
| Clc1cnccn1 [chloropyrazine] | ≤ 100 | did not show cytotoxicity even at high doses |  |  |  |  |  |  |  |  |  |  |  |  |  |  |  |  |  |
| CCN(CC)CCCC(C)Nc1ccnc2cc(Cl)ccc12 (stereo not drawn) [chloroquine] |  |  | more than 10 μM | ≥ 50 | ≥ 50 | ≥ 25 | ≥ 50 |  |  |  |  |  |  |  |  |  |  |  |  |
| OCC(O)COc1ccc(Cl)cc1 (stereo not drawn) [chlorphenesin] |  | did not show cytotoxicity even at high doses | more than 500 μM |  |  |  |  | ≥ 25 | ≥ 250 | ≥ 250 | ≥ 250 | ≥ 1000 | significantly reduced | reduced | reduction in the tumor size | no cancer metastasis to lungs | ≥ 25 | ≥ 25 | ≥ 100 |
